Laboratory results from US8293781B2, “Indole derivatives having cPLA2 inhibiting activity and applications and production methods of the same” (Daiichi Sankyo Company, Limited, priority 2007, dated 2012).
Structures can show the parent of a compound that is named as a salt.

Target: T1, cPLA2 crudely purified from the cytoplasm fraction of U937 (Homo sapiens, UniProt P47712)
T1 construct: cPLA2 crudely purified from the cytoplasm fraction of U937; endogenous in cells; host or cells: U937 cells (cytoplasm fraction, crude purification)
T1 sequence (P47712 1-749): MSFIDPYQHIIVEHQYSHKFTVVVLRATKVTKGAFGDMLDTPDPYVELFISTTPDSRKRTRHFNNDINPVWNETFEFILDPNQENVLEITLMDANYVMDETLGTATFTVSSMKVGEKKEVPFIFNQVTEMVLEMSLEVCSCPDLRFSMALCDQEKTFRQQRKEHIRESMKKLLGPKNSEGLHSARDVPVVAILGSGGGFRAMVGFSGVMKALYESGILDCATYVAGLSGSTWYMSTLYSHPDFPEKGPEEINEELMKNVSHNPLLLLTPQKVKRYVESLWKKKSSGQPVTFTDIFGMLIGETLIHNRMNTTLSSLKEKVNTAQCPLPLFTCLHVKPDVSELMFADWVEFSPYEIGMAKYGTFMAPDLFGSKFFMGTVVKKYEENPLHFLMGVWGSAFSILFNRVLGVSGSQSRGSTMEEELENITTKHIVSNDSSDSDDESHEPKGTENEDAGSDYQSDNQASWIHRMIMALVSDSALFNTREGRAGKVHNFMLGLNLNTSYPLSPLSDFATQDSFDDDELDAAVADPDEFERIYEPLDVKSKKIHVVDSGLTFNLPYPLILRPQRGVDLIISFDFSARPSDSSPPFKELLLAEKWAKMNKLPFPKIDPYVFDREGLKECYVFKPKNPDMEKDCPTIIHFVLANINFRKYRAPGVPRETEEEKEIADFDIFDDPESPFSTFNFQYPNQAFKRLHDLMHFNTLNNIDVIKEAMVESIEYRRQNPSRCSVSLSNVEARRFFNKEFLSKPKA
Assay: Measurement of cPLA2 inhibitory activity (release of [14C]-arachidonic acid from phosphatidyl choline liposome)
Format: biochemical
Details: cPLA2 from U937 cytoplasm fraction, [14C]arachidonyl-phosphatidyl choline liposome, 37° C., 60 minutes; read-out: cPLA2 inhibitory activity, 50% inhibiting concentration IC50
In short: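 The read-out is radioactivity from extracted [14C]-arachidonic acid, freed over 60 min at 37° C from liposomes of 14C-arachidonyl phosphatidylcholine (10 μM PC in the added solution). Buffer was 50 mM HEPES pH 7.5 with Ca2+, DTT, NaCl and BSA. IC50 was derived from inhibition relative to enzyme control minus no-enzyme control.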

SMILES	IC50 [µM]
O=C(O)/C=C/c1ccc2c(c1)c(CCc1ccccn1)cn2-c1ccccc1 [Example 263, (2E)-3-[1-phenyl-3-(2-pyridin-2-ylethyl)-1H-indol-5-yl]-2-propenoic acid]	1.44
O=C(O)CCc1ccc2c(c1)c(CCc1ccccn1)cn2-c1ccccc1 [Example 264, 3-[1-phenyl-3-(2-pyridin-2-ylethyl)-1H-indol-5-yl]propanoic acid]	0.338
O=C(O)/C=C/c1ccc2c(c1)c(CCc1ccccn1)cn2-c1ccc(OCc2ccccc2)cc1 [Example 267, (2E)-3-{1-[4-(benzyloxy)phenyl]-3-(2-pyridin-2-ylethyl)-1H-indol-5-yl}-2-propenoic acid]	0.11
O=C(O)CCc1ccc2c(c1)c(CCc1ccccn1)cn2-c1ccc(OCc2ccccc2)cc1 [Example 268, 3-{1-[4-(benzyloxy)phenyl]-3-(2-pyridin-2-ylethyl)-1H-indol-5-yl}propanoic acid]	0.019
O=C(O)CCc1ccc2c(c1)c(CCc1ccccn1)cn2-c1ccc(O)cc1 [Example 269, 3-[1-(4-hydroxyphenyl)-3-(2-pyridin-2-ylethyl)-1H-indol-5-yl]propanoic acid hydrochloride]	0.077
O=C(O)/C=C/c1ccc2c(c1)c(CCc1ccccn1)cn2-c1ccc(O)cc1 [Example 271, (2E)-3-[1-(4-hydroxyphenyl)-3-(2-pyridin-2-ylethyl)-1H-indol-5-yl]-2-propenoic acid]	0.357
O=C(O)CCc1ccc2c(c1)c(CCc1ccccn1)cn2-c1ccc(Oc2ccccc2)cc1 [Example 275, 3-[1-(4-phenoxyphenyl)-3-(2-pyridin-2-ylethyl)-1H-indol-5-yl]propanoic acid hydrochloride]	0.012
O=C(O)CCc1ccc2c(c1)c(CCc1ccccn1)cn2-c1ccc(OC(F)F)cc1 [Example 277, 3-{1-[4-(difluoromethoxy)phenyl]-3-(2-pyridin-2-ylethyl)-1H-indol-5-yl}propanoic acid hydrochloride]	0.098
O=C(O)CCc1ccc2c(c1)c(CCc1ccccn1)cn2-c1ccc(OCCO)cc1 [Example 279, 3-{1-[4-(2-hydroxyethoxy)phenyl]-3-(2-pyridin-2-ylethyl)-1H-indol-5-yl}propanoic acid hydrochloride]	0.245
O=C(O)CCc1ccc2c(c1)c(CCc1ccccn1)cn2-c1cccc(OCc2ccccc2)c1 [Example 281, 3-{1-[3-(benzyloxy)phenyl]-3-(2-pyridin-2-ylethyl)-1H-indol-5-yl}propanoic acid hydrochloride]	0.278
O=C(O)CCc1ccc2c(c1)c(CCc1ccccn1)cn2-c1cccc(O)c1 [Example 282, 3-[1-(3-hydroxyphenyl)-3-(2-pyridin-2-ylethyl)-1H-indol-5-yl]propanoic acid hydrochloride]	0.582
O=C(CCc1ccc2c(c1)c(CCc1ccccc1)cn2-c1ccc(O)cc1)NO [Example 284, N-hydroxy-3-[1-(4-hydroxyphenyl)-3-(2-phenylethyl)-1H-indol-5-yl]propanamide]	> 3
O=C(CCc1ccc2c(c1)c(CCc1ccccc1)cn2-c1ccc(OC(F)F)cc1)NO [Example 286, 3-{1-[4-(difluoromethoxy)phenyl]-3-(2-phenylethyl)-1H-indol-5-yl}-N-hydroxypropanamide]	> 3
O=C(O)CCc1ccc2c(c1)c(CCc1ccccc1)cn2-c1cc(F)c(OCc2ccccc2)c(F)c1 [Example 288, 3-{1-[4-(benzyloxy)-3,5-difluorophenyl]-3-(2-phenylethyl)-1H-indol-5-yl}propanoic acid 2-amino-2-(hydroxymethyl)propane-1,3-diol salt (1:1)]	0.264
O=C(O)CCc1ccc2c(c1)c(CCc1ccccc1)cn2-c1cc(F)c(O)c(F)c1 [Example 289, 3-[1-(3,5-difluoro-4-hydroxyphenyl)-3-(2-phenylethyl)-1H-indol-5-yl]propanoic acid]	0.182
O=C(O)CCc1ccc2c(c1)c(CCc1ccccc1)cn2-c1ccc(COc2ccc(F)cc2)cc1 [Example 291, 3-[1-{4-[(4-fluorophenoxy)methyl]phenyl}-3-(2-phenylethyl)-1H-indol-5-yl]propanoic acid 2-amino-2-(hydroxymethyl)propane-1,3-diol salt (1:1)]	0.083

SMILES	IC50 [µM]
O=C(O)CCc1ccc2c(c1)c(CCc1ccccc1)cn2-c1ccc(COC(F)F)cc1 [Example 293, 3-[1-{4-[(difluoromethoxy)methyl]phenyl}-3-(2-phenylethyl)-1H-indol-5-yl]propanoic acid]	0.191
CC(O)c1ccc(-n2cc(CCc3ccccc3)c3cc(CCC(=O)O)ccc32)cc1 (centres unmarked) [Example 295, 3-{1-[4-(1-hydroxyethyl)phenyl]-3-(2-phenylethyl)-1H-indol-5-yl}propanoic acid 2-amino-2-(hydroxymethyl)propane-1,3-diol salt (1:1)]	0.755
O=C(O)CCc1ccc2c(c1)c(CCc1ccccn1)cn2-c1cc(F)c(OCc2ccccc2)c(F)c1 [Example 297, 3-{1-[4-(benzyloxy)-3,5-difluorophenyl]-3-(2-pyridin-2-ylethyl)-1H-indol-5-yl}propanoic acid]	0.442
O=C(O)CCc1ccc2c(c1)c(CCc1ccccn1)cn2-c1cc(F)c(O)c(F)c1 [Example 298, 3-[1-(3,5-difluoro-4-hydroxyphenyl)-3-(2-pyridin-2-ylethyl)-1H-indol-5-yl]propanoic acid hydrochloride]	0.923
O=C(O)CCc1ccc2c(c1)c(CCc1ccccn1)cn2-c1ccc(COc2ccc(F)cc2)cc1 [Example 300, 3-[1-{4-[(4-fluorophenoxy)methyl]phenyl}-3-(2-pyridin-2-ylethyl)-1H-indol-5-yl]propanoic acid hydrochloride]	0.381
O=C(O)CCc1ccc2c(c1)c(CCc1ccccn1)cn2-c1ccc(COC(F)F)cc1 [Example 302, 3-[1-{4-[(difluoromethoxy)methyl]phenyl}-3-(2-pyridin-2-ylethyl)-1H-indol-5-yl]propanoic acid hydrochloride]	0.764
CC(O)c1ccc(-n2cc(CCc3ccccn3)c3cc(CCC(=O)O)ccc32)cc1 (centres unmarked) [Example 304, 3-{1-[4-(1-hydroxyethyl)phenyl]-3-(2-pyridin-2-ylethyl)-1H-indol-5-yl}propanoic acid hydrochloride]	> 3
O=C(O)CCc1ccc2c(c1)c(CCc1ccccc1)cn2-c1ccc(CN2CCCC2)cc1 [Example 306, 3-{3-(2-phenylethyl)-1-[4-(pyrrolidin-1-ylmethyl)phenyl]-1H-indol-5-yl}propanoic acid]	0.871
O=C(O)CCc1ccc2c(c1)c(CCc1ccccc1)cn2-c1ccc(CN2CCOCC2)cc1 [Example 308, 3-{1-[4-(morpholin-4-ylmethyl)phenyl]-3-(2-phenylethyl)-1H-indol-5-yl}propanoic acid]	0.149
CN(C)C(=O)c1ccc(-n2cc(CCc3ccccc3)c3cc(CCC(=O)O)ccc32)cc1 [Example 310, 3-[1-{4-[(dimethylamino)carbonyl]phenyl}-3-(2-phenylethyl)-1H-indol-5-yl]propanoic acid]	0.354
O=C(O)CCc1ccc2c(c1)c(CCc1ccccc1)cn2-c1ccc(C(=O)N2CCOCC2)cc1 [Example 312, 3-{1-[4-(morpholin-4-ylcarbonyl)phenyl]-3-(2-phenylethyl)-1H-indol-5-yl}propanoic acid]	0.404
CN(C)C(=O)c1cccc(-n2cc(CCc3ccccc3)c3cc(CCC(=O)O)ccc32)c1 [Example 314, 3-{1-[3-(dimethylcarbamoyl)phenyl]-3-(2-phenylethyl)-1H-indol-5-yl}propanoic acid]	> 3
O=C(O)CCc1ccc2c(c1)c(CCc1ccccc1)cn2-c1cccc(C(=O)N2CCOCC2)c1 [Example 316, 3-{1-[3-(morpholin-4-ylcarbonyl)phenyl]-3-(2-phenylethyl)-1H-indol-5-yl}propanoic acid]	> 3
CN(C)S(=O)(=O)c1ccc(-n2cc(CCc3ccccc3)c3cc(CCC(=O)O)ccc32)cc1 [Example 318, 3-[1-{4-[(dimethylamino)sulfonyl]phenyl}-3-(2-phenylethyl)-1H-indol-5-yl]propanoic acid]	0.271
O=C(O)CCc1ccc2c(c1)c(CCc1ccccc1)cn2-c1ccc(S(=O)(=O)N2CCOCC2)cc1 [Example 320, 3-{1-[4-(morpholin-4-ylsulfonyl)phenyl]-3-(2-phenylethyl)-1H-indol-5-yl}propanoic acid]	0.258
CN(C)S(=O)(=O)c1cccc(-n2cc(CCc3ccccc3)c3cc(CCC(=O)O)ccc32)c1 [Example 322, 3-[1-{3-[(dimethylamino)sulfonyl]phenyl}-3-(2-phenylethyl)-1H-indol-5-yl]propanoic acid]	1.91
